Assay results reported in patent US20240217946A1, “ANTIDEPRESSANT AND ANXIOLYTIC SUBSTITUTED CINNAMAMIDE COMPOUND” (TASLY PHARMACEUTICAL GROUP CO., LTD., priority 2021, published 2024).
Values joined by “and” are separate entries in the source; they are usually repeats but may differ in a detail not shown here. Identical values can stand only once. Like-named read-outs stand apart in the source and are kept apart here.

Legend:
[1] = Pharmacokinetics and absolute bioavailability in rats (LC-MS/MS); format: in vivo; conditions: rat; for MRT inf: read-out: MRT0-∞
Text: A LC-MS/MS method for determination of compound I-5 and compound M2 in rat plasma was established through experiments to investigate the pharmacokinetic characteristics and absolute bioavailability of compounds in rats.
20 SPF-grade SD male rats (body weight 220±20 g), purchased from Beijing Vital River Laboratory Animal Technology Co., Ltd.
• Chromatographic column: waters BEH C18 1.7 μm; 2.1×100 mm Column • Internal standard: D-I-5 (deuterated compound I-5, with the following structural formula)
20 SD rats were randomly divided into 4 groups, with 5 rats in each group. […]
50 μL plasma was taken, 50 μL D-I-5 (20 ng/mL dissolved in acetonitrile) was added, the mixture was whirled for 30 s, then 100 μL acetonitrile was added; the mixture was fully whirled for 2 min, and was centrifuged at 4° C. at 12000 r/min for 3 min, 50 μL supernatant was taken, 50 μL aqueous solution was added for dilution, followed by whirling for Imin, and 4 μL sample was injected.
The mean plasma concentration-time curves of rats after oral intragastric administration and intravenous administration were respectively shown in FIGS. 8 and 9. Data were processed using DAS 3.0 pharmacokinetic software (Chinese Professional Committee of Mathematical Pharmacology, Shanghai, China), and statistical moment parameters of the non-compartmental model were calculated, Cmax and Tmax being measured values.

[2] = tested on: NA reuptake in rat brain synaptosomes; experiment: 3H-NA reuptake by rat brain synaptosomes; format: biochemical; conditions: 3H-NA 10 nM, rat brain synaptosomes; read-out: NA inhibition rate % IC50
Text: At present, it is believed that absolute or relative deficiencies of the central monoamine neurotransmitters 5-hydroxytryptamine (5-HT), norepinephrine (NA) and dopamine (DA) are closely related to depression and anxiety.
Synaptosomes were separated using methods in literature to prepare brain synaptosomes. SD rats were rapidly decapitated with a small animal decapitator. After decapitation, brains were taken out quickly and precooled in an ice-water mixture, and the pia mater and vascular tissue were removed. Brain tissue was taken out. 10 times volume (ml/g) of 10 mM Tris HCl buffer (containing 0.32 M sucrose, pH 7.4) was added, an ultrasonic cell pulverizer was used for homogenization (maintaining at a low temperature), and the brain tissue was homogenized and centrifuged for 10 min (4° C., 1,000 g). After balanced centrifugation (1500 g, 10 min) at 4° C., precipitate was discarded, then supernatant was taken, and centrifugation (20000 g) was performed again for 30 min. The supernatant was discarded and the precipitate, i.e. crude extract of synaptic corpuscles, was retained. The precipitate was further suspended in 0.32 M cold sucrose solution and then carefully laid on 1.2 M and 0.8 M (10 ml each) cold sucrose gradient solutions which had been laid sequentially on the bottom of the tube, followed by balanced centrifugation (38000 g) at 4 °C for 60 min. A suspension band at the 0.8-1.2 M sucrose interface was carefully collected with a puncture needle, which was placed in 10 ml of 0.32 M cold sucrose solution and mixed well, and equilibrium centrifuged (20000 g) at 4 °C for 30 min. The precipitate was refined brain synaptosomes. […]
The percentage inhibition of isotope ligand binding by each compound was calculated according to the following equation: […]

mice = conditions: mouse, in vivo; cited from earlier work
[3] = male, SD, plasma, po, intragastric administration 12.5 mg/kg, n = 5
[4] = male, SD, plasma, intravenous administration 2.5 mg/kg, n = 5
[5] = male, Sprague-Dawley (SD), plasma, po, intragastric administration 12.5 mg/kg, n = 5
[6] = male, Sprague-Dawley (SD), plasma, intravenous administration 2.5 mg/kg, n = 5

bioavailability ([1]; male, SD, plasma, oral, absolute bioavailability, intragastric 12.5 mg/kg vs intravenous 2.5 mg/kg, read-out: F (bioavailability, %)): 24.1% | AUC(0-t) [1, 3]: 523 ± 433 ng·h/mL | Tmax [1, 3]: 21 min | half-life [1, 3]: 55.8 ± 22.8 min | C0 [1, 4]: 2050 ± 907 ng/mL | half-life [1, 4]: 39.6 ± 4.2 min | concentration at 0.08 h ([1]; male, SD, plasma, iv, 2.5 mg/kg, single intravenous 2.5 mg/kg, 0.08 h, read-out: Plasma concentration, Mean): 1150 ng/mL | concentration at 0.25 h ([1]; male, SD, plasma, iv, 2.5 mg/kg, single intravenous 2.5 mg/kg, 0.25 h, read-out: Plasma concentration, Mean): 393 ng/mL | concentration at 0.5 h ([1]; male, SD, plasma, iv, 2.5 mg/kg, single intravenous 2.5 mg/kg, 0.50 h): 152 ng/mL | concentration at 1 h ([1]; male, SD, plasma, iv, 2.5 mg/kg, single intravenous 2.5 mg/kg, 1 h, read-out: Plasma concentration, Mean): 60.3 ng/mL | concentration at 2 h ([1]; male, SD, plasma, iv, 2.5 mg/kg, single intravenous 2.5 mg/kg, 2 h): 16.8 ng/mL | concentration at 3 h ([1]; male, SD, plasma, iv, 2.5 mg/kg, single intravenous 2.5 mg/kg, 3 h): 6.9 ng/mL | concentration at 4 h ([1]; male, SD, plasma, iv, 2.5 mg/kg, single intravenous 2.5 mg/kg, 4 h, read-out: Plasma concentration, Mean): 3 ng/mL | concentration at 4 h ([1]; male, SD, plasma, iv, 2.5 mg/kg, single intravenous 2.5 mg/kg, 4 h, read-out: Plasma concentration, individual rats): 3.01 ng/mL | concentration at 0.08 h ([1]; male, SD, plasma, oral, 12.5 mg/kg, single intragastric 12.5 mg/kg, 0.08 h, read-out: Plasma concentration, Mean): 118 ng/mL | concentration at 0.25 h ([1]; male, SD, plasma, oral, 12.5 mg/kg, single intragastric 12.5 mg/kg, 0.25 h, read-out: Plasma concentration, Mean): 367 ng/mL | concentration at 0.5 h ([1]; male, SD, plasma, oral, 12.5 mg/kg, single intragastric 12.5 mg/kg, 0.50 h): 334 ng/mL | concentration at 1 h ([1]; male, SD, plasma, oral, 12.5 mg/kg, single intragastric 12.5 mg/kg, 1 h, read-out: Plasma concentration, Mean): 266 ng/mL | concentration at 2 h ([1]; male, SD, plasma, oral, 12.5 mg/kg, single intragastric 12.5 mg/kg, 2 h): 109 ng/mL | concentration at 3 h ([1]; male, SD, plasma, oral, 12.5 mg/kg, single intragastric 12.5 mg/kg, 3 h): 44.4 ng/mL | concentration at 4 h ([1]; male, SD, plasma, oral, 12.5 mg/kg, single intragastric 12.5 mg/kg, 4 h, read-out: Plasma concentration, Mean): 15.3 ng/mL | concentration at 6 h ([1]; male, SD, plasma, oral, 12.5 mg/kg, single intragastric 12.5 mg/kg, 6 h): 6.6 ng/mL | Cmax ([1]; male, SD, plasma, po, 12.5 mg/kg, intragastric administration 12.5 mg/kg, n = 5, read-out: Cmax): 361 ± 258 ng/mL | AUC(0-inf) [1, 5]: 659 ± 371 ng·h/mL | MRT inf [1, 5]: 69.6 ± 7.2 min | AUC(0-inf) [1, 6]: 438 ± 139 ng·h/mL | AUC(0-t) [1, 6]: 436 ± 138 ng·h/mL | MRT inf [1, 6]: 22.2 ± 6.6 min | Plasma concentration, individual rats ([1]; single intragastric 12.5 mg/kg, 8 h): BOL and BQL (4×) | Plasma concentration, individual rats ([1]; single intravenous 2.5 mg/kg, 6 h): BQL | Plasma concentration, individual rats ([1]; single intravenous 2.5 mg/kg, 8 h): BQL | IC50 [2]: 17.2 ± 1.59 nM
SMILES: CC(C)CNC(=O)/C=C/c1cc2c(c(C(F)(F)F)c1)OCO2 [Compound I-5]
Plasma concentration, individual rats ([1]; single intragastric 12.5 mg/kg, 0.08 h): 140 ng/mL and 3.59 ng/mL and 70.1 ng/mL and 214 ng/mL and 164 ng/mL | Plasma concentration, individual rats ([1]; single intragastric 12.5 mg/kg, 0.25 h): 706 ng/mL and 7.11 ng/mL and 371 ng/mL and 389 ng/mL and 361 ng/mL | Plasma concentration, individual rats ([1]; single intragastric 12.5 mg/kg, 0.50 h): 735 ng/mL and 4.71 ng/mL and 416 ng/mL and 268 ng/mL and 246 ng/mL | Plasma concentration, individual rats ([1]; single intragastric 12.5 mg/kg, 1 h): 450 ng/mL and BQL and 391 ng/mL and 92.3 ng/mL and 132 ng/mL | Plasma concentration, individual rats ([1]; single intragastric 12.5 mg/kg, 2 h): 224 ng/mL and BQL and 134 ng/mL and 35.8 ng/mL and 43.0 ng/mL | Plasma concentration, individual rats ([1]; single intragastric 12.5 mg/kg, 3 h): 84.5 ng/mL and BQL and 58.4 ng/mL and 11.3 ng/mL and 23.6 ng/mL | Plasma concentration, individual rats ([1]; single intragastric 12.5 mg/kg, 4 h): 27.3 ng/mL and BQL and 17.3 ng/mL and 10.7 ng/mL and 6.16 ng/mL | Plasma concentration, individual rats ([1]; single intragastric 12.5 mg/kg, 6 h): 5.64 ng/mL and BQL and 3.20 ng/mL and 5.66 ng/mL and 12.2 ng/mL | Plasma concentration, individual rats ([1]; single intravenous 2.5 mg/kg, 0.08 h, 2.5 mg/kg): 1750 ng/mL and 1150 ng/mL and 659 ng/mL and 865 ng/mL and 1350 ng/mL | Plasma concentration, individual rats ([1]; single intravenous 2.5 mg/kg, 0.25 h, 2.5 mg/kg): 628 ng/mL and 247 ng/mL and 540 ng/mL and 260 ng/mL and 291 ng/mL | Plasma concentration, individual rats ([1]; single intravenous 2.5 mg/kg, 0.50 h, 2.5 mg/kg): 243 ng/mL and 75.7 ng/mL and 225 ng/mL and 95.9 ng/mL and 120 ng/mL | Plasma concentration, individual rats ([1]; single intravenous 2.5 mg/kg, 1 h, 2.5 mg/kg): 103 ng/mL and 24.9 ng/mL and 80.2 ng/mL and 52.0 ng/mL and 41.6 ng/mL | Plasma concentration, individual rats ([1]; single intravenous 2.5 mg/kg, 2 h, 2.5 mg/kg): 25.1 ng/mL and 6.66 ng/mL and 19.3 ng/mL and 15.2 ng/mL and 17.7 ng/mL | Plasma concentration, individual rats ([1]; single intravenous 2.5 mg/kg, 3 h, 2.5 mg/kg): 8.95 ng/mL and 2.49 ng/mL and 9.76 ng/mL and 5.45 ng/mL and 7.89 ng/mL | Plasma concentration, individual rats ([1]; single intravenous 2.5 mg/kg, 4 h, 2.5 mg/kg): BQL and 3.38 ng/mL and 2.60 ng/mL and 3.08 ng/mL | immobility time of forced swimming in mice (mice): significantly shorten the immobility time
